Assay results taken from ChEMBL document CHEMBL1201862, “PubChem BioAssay data set” (2004).
Calls of active or inactive are those of the source.

What was measured:
[1] = target: Ras and Rab interactor 1/Tyrosine-protein kinase ABL1 (Homo sapiens, UniProt P00519+Q13671); assay type: functional;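 also: biochemical TR-FRET dose-response test measuring inhibition of binding between Rin1 and Abl proteins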
[2] = target: Beta-2 adrenergic receptor (Homo sapiens, UniProt P07550); experiment: ADRB2 activation measured by internalization – cell-based, FAP fluorogen, flow cytometry, cherry pick 1, dose response (AID 588763); assay type: functional
[3] = target: Paired box protein Pax-8 (Homo sapiens, UniProt Q06710); experiment: PAX8 transcriptional activity inhibition in RMG-I – RMG-I cells, luciferase, cherry-pick, dose response (AID 687027); assay type: functional, cell-based;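 also: luciferase reporter driven by Pax8 target thyroperoxidase promoter measured by SteadyGlo luminescence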
[4] = target: Glucose-6-phosphate 1-dehydrogenase (Homo sapiens, UniProt P11413); experiment: inhibition of Homo sapiens G6PD, dose series – biochemical, fluorescence, selectivity assay for P. falciparum G6PD inhibitor project, dose response (AID 504792); assay type: functional
[5] = inhibition of ARNT PAS-B/TACC3 complex formation – biochemical, AlphaScreen, cherry-picked samples, confirmation (AID 651703); assay type: functional, Homo sapiens;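 also: His-tagged ARNT PAS-B domain paired with GST-TACC3 E629A dimer coactivator fragment; potency of inhibitors that break up the complex and lower AlphaScreen signal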
[6] = tested on: HEK293; experiment: cells; assay type: functional, cell-based; conditions: Homo sapiens
[7] = Trypanosoma cruzi growth suppression in host cells – NIH3T3 host cells, beta-gal luminescence, confirmation (AID 2044); assay type: functional, cell-based;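 also: intracellular parasites grown in NIH/3T3 mouse fibroblasts as host cells; luminescent beta-galactosidase reporter signal from transgenic T. cruzi replicating inside host cells; inhibitors lower the luminescence signal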
[8] = tested on: HEK293; experiment: inhibition of NOD1-driven NF-kB reporter – cell-based, luminescence, uHTS, primary screen (AID 1578); assay type: functional; conditions: Homo sapiens
[9] = tested on: HEK293; experiment: cells; assay type: functional, cell-based; conditions: Homo sapiens; remark: listed apart in the source
[10] = NIH3T3 cell viability loss – ATP luminescence, mouse fibroblasts, counter-screen, dose response (AID 2010); assay type: functional, cell-based;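 also: cells exposed to compound for about 90 hours before reading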
[11] = tested on: HEK293; experiment: NOD2 signaling inhibitors in MDP-stimulated cells, cell-based, uHTS, luminescence (AID 2001); assay type: functional; conditions: Homo sapiens
[12] = target: Nucleotide-binding oligomerization domain-containing protein 2 (Homo sapiens, UniProt Q9HC29); experiment: inhibition of NOD2-driven NF-kB reporter – cell-based, luminescence, uHTS, HEK293 (AID 1566); assay type: functional
[13] = tested on: HEK293; experiment: cells; assay type: functional, cell-based; conditions: Homo sapiens; remark: listed apart in the source
[14] = target: Cytochrome P450 2D6 (Homo sapiens, UniProt P10635);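 also: CYP2D6 member of a cytochrome P450 panel assay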
[15] = target: T1, Hepatocyte nuclear factor 4-alpha (Homo sapiens, UniProt P41235); assay type: functional, cell-based;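 also: biochemical luminescence-based dose-response counterscreen measuring inhibition of HNF4 dimerization, run alongside a screen for blockers of ABHD5–perilipin-5 interaction; split luciferase complementation of HNF4 fusion proteins in cell lysate measuring dimerization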
T1 sequence (P41235 whole entry): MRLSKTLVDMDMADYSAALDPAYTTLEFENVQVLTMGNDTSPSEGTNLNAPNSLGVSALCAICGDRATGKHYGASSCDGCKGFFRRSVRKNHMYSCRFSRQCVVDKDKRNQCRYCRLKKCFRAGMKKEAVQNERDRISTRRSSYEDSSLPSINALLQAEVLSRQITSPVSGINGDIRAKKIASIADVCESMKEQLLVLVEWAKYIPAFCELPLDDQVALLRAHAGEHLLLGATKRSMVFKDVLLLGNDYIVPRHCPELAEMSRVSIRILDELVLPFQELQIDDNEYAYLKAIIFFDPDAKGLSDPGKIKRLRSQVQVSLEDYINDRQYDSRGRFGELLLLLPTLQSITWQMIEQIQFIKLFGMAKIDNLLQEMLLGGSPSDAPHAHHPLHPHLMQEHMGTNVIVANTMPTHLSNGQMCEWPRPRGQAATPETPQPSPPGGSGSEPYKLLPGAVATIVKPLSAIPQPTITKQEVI

[16] = target: Genome polyprotein (dengue virus type 2, UniProt P29990); experiment: flavivirus cap methylation enzyme inhibition – biochemical, confirmation dose response, primary screen (AID 588689); assay type: functional
Chain of Genome polyprotein (P29990 2492-3391 limits assumed): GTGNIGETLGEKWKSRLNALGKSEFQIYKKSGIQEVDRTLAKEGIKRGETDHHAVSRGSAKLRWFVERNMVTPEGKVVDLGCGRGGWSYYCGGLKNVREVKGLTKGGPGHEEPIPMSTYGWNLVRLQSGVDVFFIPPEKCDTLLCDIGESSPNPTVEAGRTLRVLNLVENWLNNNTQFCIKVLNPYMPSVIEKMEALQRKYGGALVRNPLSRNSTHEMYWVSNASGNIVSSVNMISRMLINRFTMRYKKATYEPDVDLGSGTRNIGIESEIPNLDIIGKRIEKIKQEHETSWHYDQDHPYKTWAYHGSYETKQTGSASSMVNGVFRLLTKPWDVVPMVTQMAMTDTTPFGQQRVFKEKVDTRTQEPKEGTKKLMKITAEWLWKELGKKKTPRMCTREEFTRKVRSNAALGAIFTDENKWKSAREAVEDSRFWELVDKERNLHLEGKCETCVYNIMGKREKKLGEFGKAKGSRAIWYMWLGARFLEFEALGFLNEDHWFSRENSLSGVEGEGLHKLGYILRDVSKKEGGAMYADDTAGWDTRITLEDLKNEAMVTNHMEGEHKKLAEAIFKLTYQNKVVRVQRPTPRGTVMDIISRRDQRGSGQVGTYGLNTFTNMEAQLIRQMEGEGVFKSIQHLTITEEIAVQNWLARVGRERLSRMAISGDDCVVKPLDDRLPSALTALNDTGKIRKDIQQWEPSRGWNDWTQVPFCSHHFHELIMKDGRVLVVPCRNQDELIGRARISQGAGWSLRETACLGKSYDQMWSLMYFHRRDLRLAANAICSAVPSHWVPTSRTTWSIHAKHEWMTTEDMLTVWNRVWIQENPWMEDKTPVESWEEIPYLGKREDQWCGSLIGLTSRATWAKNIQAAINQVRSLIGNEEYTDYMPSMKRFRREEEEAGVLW

Chain of Beta-2 adrenergic receptor (P07550 whole entry): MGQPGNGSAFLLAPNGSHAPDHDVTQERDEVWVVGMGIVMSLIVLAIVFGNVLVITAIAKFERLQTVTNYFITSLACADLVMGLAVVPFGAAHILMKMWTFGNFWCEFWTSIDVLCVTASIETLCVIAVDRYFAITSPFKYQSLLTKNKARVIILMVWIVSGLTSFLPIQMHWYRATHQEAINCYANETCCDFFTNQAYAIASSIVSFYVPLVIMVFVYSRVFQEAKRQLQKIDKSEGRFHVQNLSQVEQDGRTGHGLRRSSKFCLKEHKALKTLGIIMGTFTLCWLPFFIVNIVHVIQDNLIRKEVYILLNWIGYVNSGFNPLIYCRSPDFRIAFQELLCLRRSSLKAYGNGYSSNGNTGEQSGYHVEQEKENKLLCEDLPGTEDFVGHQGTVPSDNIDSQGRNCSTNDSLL
Chain of Ras and Rab interactor 1/Tyrosine-protein kinase ABL1 (P00519 whole entry): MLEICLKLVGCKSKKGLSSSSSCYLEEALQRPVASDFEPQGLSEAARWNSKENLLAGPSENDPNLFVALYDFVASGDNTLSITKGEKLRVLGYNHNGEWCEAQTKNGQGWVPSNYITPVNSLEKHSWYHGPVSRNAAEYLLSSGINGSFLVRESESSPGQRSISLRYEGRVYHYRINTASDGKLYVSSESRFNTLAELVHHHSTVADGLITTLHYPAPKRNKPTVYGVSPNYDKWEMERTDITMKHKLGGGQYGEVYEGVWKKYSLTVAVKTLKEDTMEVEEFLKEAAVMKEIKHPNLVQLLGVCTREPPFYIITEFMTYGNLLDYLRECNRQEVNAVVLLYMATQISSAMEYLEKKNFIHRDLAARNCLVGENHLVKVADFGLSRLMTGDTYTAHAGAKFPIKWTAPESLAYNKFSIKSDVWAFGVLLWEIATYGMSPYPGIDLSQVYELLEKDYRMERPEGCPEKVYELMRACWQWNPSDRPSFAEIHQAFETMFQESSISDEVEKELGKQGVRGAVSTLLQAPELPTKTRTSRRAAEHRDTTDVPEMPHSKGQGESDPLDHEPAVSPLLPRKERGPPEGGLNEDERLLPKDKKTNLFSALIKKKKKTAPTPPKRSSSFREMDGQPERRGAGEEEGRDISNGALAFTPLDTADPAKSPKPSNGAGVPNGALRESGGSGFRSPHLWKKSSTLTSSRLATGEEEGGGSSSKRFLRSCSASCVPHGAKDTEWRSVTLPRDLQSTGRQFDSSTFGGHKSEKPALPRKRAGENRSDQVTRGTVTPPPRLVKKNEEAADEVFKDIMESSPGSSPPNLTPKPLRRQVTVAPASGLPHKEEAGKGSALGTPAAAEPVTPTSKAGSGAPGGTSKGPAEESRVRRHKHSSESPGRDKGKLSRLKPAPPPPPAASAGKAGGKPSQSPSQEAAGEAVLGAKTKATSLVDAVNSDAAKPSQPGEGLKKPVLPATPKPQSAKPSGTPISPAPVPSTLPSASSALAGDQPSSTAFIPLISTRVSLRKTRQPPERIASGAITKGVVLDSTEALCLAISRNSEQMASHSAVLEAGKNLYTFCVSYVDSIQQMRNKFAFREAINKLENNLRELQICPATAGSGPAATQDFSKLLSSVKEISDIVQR
Chain of Ras and Rab interactor 1/Tyrosine-protein kinase ABL1 (Q13671 whole entry): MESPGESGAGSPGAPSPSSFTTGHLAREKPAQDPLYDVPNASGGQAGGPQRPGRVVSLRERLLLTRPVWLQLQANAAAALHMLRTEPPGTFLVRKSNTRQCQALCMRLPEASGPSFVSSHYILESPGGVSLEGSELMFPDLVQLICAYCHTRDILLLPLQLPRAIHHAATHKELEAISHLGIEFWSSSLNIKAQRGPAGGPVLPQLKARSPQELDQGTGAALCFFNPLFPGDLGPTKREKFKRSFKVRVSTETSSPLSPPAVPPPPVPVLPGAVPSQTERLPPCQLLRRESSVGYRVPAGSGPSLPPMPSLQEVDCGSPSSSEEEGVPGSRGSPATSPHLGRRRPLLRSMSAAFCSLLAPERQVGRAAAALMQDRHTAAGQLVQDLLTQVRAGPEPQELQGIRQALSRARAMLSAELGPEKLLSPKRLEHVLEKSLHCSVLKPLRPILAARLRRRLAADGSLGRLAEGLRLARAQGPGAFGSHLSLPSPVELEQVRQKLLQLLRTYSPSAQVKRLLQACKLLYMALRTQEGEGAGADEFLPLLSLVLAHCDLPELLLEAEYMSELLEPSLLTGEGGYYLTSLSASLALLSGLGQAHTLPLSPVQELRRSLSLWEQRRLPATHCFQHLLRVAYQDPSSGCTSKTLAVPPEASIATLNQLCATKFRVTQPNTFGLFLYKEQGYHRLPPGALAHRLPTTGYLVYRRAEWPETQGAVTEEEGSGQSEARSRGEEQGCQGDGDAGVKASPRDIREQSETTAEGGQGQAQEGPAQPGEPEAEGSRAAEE
Chain of Glucose-6-phosphate 1-dehydrogenase (P11413 whole entry, the tested form may be a part): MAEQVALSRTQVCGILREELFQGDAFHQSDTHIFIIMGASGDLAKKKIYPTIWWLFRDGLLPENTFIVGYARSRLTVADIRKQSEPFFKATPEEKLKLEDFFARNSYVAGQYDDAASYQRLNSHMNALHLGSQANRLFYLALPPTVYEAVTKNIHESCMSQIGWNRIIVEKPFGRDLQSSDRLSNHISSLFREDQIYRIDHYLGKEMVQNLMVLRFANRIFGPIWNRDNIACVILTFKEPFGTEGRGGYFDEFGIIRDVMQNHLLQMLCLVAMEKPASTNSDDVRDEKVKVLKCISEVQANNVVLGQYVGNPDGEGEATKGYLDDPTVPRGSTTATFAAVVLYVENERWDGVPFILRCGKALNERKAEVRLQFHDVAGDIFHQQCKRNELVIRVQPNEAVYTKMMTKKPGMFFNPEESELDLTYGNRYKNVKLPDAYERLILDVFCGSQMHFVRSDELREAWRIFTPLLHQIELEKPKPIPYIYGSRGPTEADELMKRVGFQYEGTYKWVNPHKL
Chain of Cytochrome P450 2D6 (P10635 whole entry, the tested form may be a part): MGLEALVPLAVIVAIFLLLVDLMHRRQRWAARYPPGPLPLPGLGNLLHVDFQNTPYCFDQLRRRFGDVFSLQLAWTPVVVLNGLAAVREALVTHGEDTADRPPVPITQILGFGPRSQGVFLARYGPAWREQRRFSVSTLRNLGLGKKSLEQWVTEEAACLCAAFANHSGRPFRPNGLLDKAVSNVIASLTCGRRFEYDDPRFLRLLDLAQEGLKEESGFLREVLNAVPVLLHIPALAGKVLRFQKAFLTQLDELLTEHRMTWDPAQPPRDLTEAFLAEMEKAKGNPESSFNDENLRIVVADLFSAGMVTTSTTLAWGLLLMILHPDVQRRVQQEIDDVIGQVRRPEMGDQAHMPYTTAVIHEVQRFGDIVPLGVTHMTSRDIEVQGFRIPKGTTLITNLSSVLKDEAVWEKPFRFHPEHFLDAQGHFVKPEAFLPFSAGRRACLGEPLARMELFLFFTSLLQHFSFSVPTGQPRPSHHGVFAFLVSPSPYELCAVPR
Chain of Paired box protein Pax-8 (Q06710 whole entry): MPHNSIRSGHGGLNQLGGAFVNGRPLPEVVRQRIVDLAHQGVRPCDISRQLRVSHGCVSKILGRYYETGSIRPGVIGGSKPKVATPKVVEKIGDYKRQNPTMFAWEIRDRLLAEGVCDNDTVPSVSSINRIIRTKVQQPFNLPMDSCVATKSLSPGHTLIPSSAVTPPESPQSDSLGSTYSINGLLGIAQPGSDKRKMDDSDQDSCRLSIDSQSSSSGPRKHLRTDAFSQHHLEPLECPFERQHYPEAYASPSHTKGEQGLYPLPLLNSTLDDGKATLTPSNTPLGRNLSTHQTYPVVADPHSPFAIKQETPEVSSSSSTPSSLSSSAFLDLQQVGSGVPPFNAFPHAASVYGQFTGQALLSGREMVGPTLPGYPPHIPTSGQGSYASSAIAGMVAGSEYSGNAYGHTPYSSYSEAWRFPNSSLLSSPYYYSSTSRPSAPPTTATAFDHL

CCOC(=O)CN1C(=O)NC2NC(=O)NC21 (stereo not given)
IC50 [1]: 23.8 µM (inactive)

N#Cc1cc(-c2ccccc2)nnc1Oc1ccccc1Cl
EC50 [2]: 0.173 µM (active)

CCc1cc(-c2n[nH]c(C)c2-c2nc3ccccc3n2C)c(O)cc1O
AC50 [3]: 40.6 µM (active) | IC50 [4]: > 80 µM (inactive)

O=C(NCCCn1ccnc1)C(=O)NCC(c1ccco1)N1CCN(c2ccc(F)cc2)CC1 (stereo not given)
AC50 [5]: 99.3 µM (active)

CCC1(CC)C(=O)C2=C3C1[C@H](C(=O)OC)C=C(C(=O)OC)C[C@H]3n1c(=O)n(-c3ccccc3)c(=O)n1[C@H]2C (stereo not given in full)
IC50 [1]: 22.4 µM (inactive)

C/C(Cn1nnc([N+](=O)[O-])n1)=N\NC(=O)c1ccc(Cl)c(Cl)c1
IC50 [6]: 18.5 µM (active) | EC50 [7]: 0.184 µM (active) | EC50 [8]: > 20 µM (inactive) | IC50 [4]: > 80 µM (inactive) | IC50 [9]: > 20 µM (inactive) | EC50 [10]: > 60 µM (not active) | IC50 [11]: > 20 µM (inactive) | EC50 [12]: 4.92 µM (active) | IC50 [13]: > 20 µM (inactive)

COCCc1ncc(CN2CCC(C(=O)Nc3ccc(-n4cccn4)cc3)CC2)cn1
EC50 [2]: 1.29 µM (active)

COC(=O)C/C=C\[C@@H](C)[C@@H](/C=N\OC[C@@H](O)COCc1ccco1)NS(=O)(=O)c1ccc(C)cc1
AC50 [14]: inconclusive

CCCCCNC(=O)C(C1CC1)n1c(=O)c(-c2ccco2)nc2ccccc21 (stereo not given)
IC50 [15]: 6.11 µM (active)

COc1ccc(-c2cc(-c3ccc(Cl)cc3)c(C#N)c(SCC(=O)O)n2)cc1
IC50 [16]: 50 µM (active)

O=C(O)COc1ccccc1/C=C1\C(=O)NC(=O)N(CCC2=CCCCC2)C1=O
IC50 [16]: > 100 µM (active)
